In patent US9353072B2, “Antimicrobial substituted thiazoles and methods of use” (Purdue Research Foundation, priority 2012, dated 2016):
Values after ≈ are worked out from the molar mass of the structure shown. “Also recorded” adds a separate entry of the source. Like-named read-outs stand apart in the source and are kept apart here. Each block holds one molecule with its values, some of them ahead of it.

What was measured:
[1] = tested on: VISA HIP07256 (NRS19); test: MIC/MBC broth microdilution, NRS19 (VISA HIP07256); assay type: cell-based; conditions: Staphylococcus aureus
Protocol: (§1) Determination of minimum inhibitory concentration (MIC). The MICs of the lead thiazole compound (compound 1a) and nine derivatives tested against all 18 MRSA strains were determined, in triplicate samples, using the broth microdilution method in accordance with the recommendations contained in the CLSI guidelines.

[2] = tested on: MRSA NRS384 (USA300); test: MIC/MBC broth microdilution, NRS384 (USA300); assay type: cell-based; conditions: Staphylococcus aureus
Protocol: as §1

[3] = tested on: murine macrophage cells (J774.A1); test: In vitro cytotoxicity analysis, MTS assay; assay type: cell-based; conditions: 16 μM, 24 hours
Protocol: In vitro cytotoxicity analysis: Compounds were assayed at concentrations of 2 μM, 4 μM, 8 μM, and 16 μM against a macrophage cell line (J774.A1) to determine the potential toxic effect in vitro. Murine macrophage cells were cultured in Dulbeco's Modified Eagle Medium (Sigma-Aldrich, St. Louis, Mo., USA) with 10% Fetal Bovine Serum (USA Scientific, Inc.) at 37° C. with 5% CO2. Controls received DMSO alone at a concentration equal to that in drug-treated cell samples. The cells were incubated with the compounds in a 96-Well Plate at 37° C. and 5.0% CO2 for 24 hours prior to addition of the assay reagent MTS 3-(4,5-dimethylthiazol-2-yl)-5-(3-carboxymethoxyphenyl)-2-(4-sulfophenyl)-2H-tetrazolium) (Promega, Madison, Wis., USA). The reagent measures the succinate dehydrogenase mitochondrial activity as an indicator of cell viability and proliferation. Corrected absorbance readings (actual absorbance readings for each treatment subtracted from background absorbance) were taken using a kinetic ELISA microplate reader (Molecular Devices, Sunnyvale, Calif., USA). The quantity of viable cells after treatment with each compound was expressed as a percentage of the control, DMSO.

[4] = tested on: MRSA USA200; test: MIC broth microdilution, MRSA USA200; assay type: cell-based; conditions: Staphylococcus aureus; Table 2; MRSA USA200; read-out: Minimum Inhibitory Concentration
Protocol: as §1

[5] = tested on: MRSA USA100; test: MIC broth microdilution, MRSA USA100; assay type: cell-based; conditions: Staphylococcus aureus; Table 2; MRSA USA100; read-out: Minimum Inhibitory Concentration
Protocol: as §1

[6] = tested on: MRSA USA800; test: MIC broth microdilution, MRSA USA800; assay type: cell-based; conditions: Staphylococcus aureus, Table 2, read-out: Minimum Inhibitory Concentration
Protocol: as §1

[7] = tested on: VISA LIM 3 (NRS37); test: MIC/MBC broth microdilution, NRS37 (VISA LIM 3); assay type: cell-based; conditions: Staphylococcus aureus
Protocol: as §1

[8] = tested on: MRSA USA400 (NRS123); test: MIC/MBC broth microdilution, NRS123 (USA400); assay type: cell-based; conditions: Staphylococcus aureus
Protocol: as §1

[9] = tested on: NRS119; test: MIC/MBC broth microdilution, NRS119; assay type: cell-based; conditions: Staphylococcus aureus
Protocol: as §1

[10] = tested on: MRSA ATCC 700699 (NRS1, VISA); test: MIC/MBC broth microdilution, NRS1 (ATCC 700699); assay type: cell-based; conditions: Staphylococcus aureus
Protocol: as §1

[11] = tested on: MRSA USA500 (NRS385); test: MIC/MBC broth microdilution, NRS385 (USA500); assay type: cell-based; conditions: Staphylococcus aureus
Protocol: as §1

[12] = tested on: NRS194; test: MIC/MBC broth microdilution, NRS194; assay type: cell-based; conditions: Staphylococcus aureus
Protocol: as §1

[13] = tested on: VRSA (VRS10); test: MIC/MBC broth microdilution, VRSA (VRS10); assay type: cell-based, Staphylococcus aureus; conditions: Staphylococcus aureus; for MIC: read-out: Minimum Inhibitory Concentration
Protocol: as §1

[14] = tested on: 18 different strains of MRSA and VRSA; test: MIC broth microdilution, panel of 18 MRSA and VRSA strains (summary statements); assay type: cell-based, Staphylococcus aureus; conditions: relative to lead compound 1a; number of strains as stated in the sentence
Protocol: as §1

[15] = tested on: NRS107; test: MIC/MBC broth microdilution, NRS107; assay type: cell-based; conditions: Staphylococcus aureus
Protocol: as §1

[16] = tested on: MRSA ATCC 43300; test: MIC/MBC broth microdilution, MRSA ATCC 43300; assay type: cell-based, Staphylococcus aureus; conditions: Staphylococcus aureus
Protocol: as §1

[17] = Table 2, VISA HIP07256, read-out: Minimum Inhibitory Concentration
[18] = Table 2, MRSA USA300, read-out: Minimum Inhibitory Concentration
[19] = Table 2, MRSA ATCC 700699, read-out: Minimum Inhibitory Concentration
[20] = Table 2, MRSA USA500, read-out: Minimum Inhibitory Concentration
[21] = Table 2, read-out: Minimum Inhibitory Concentration

MIC [1, 17]: 2.3 µg/mL
MIC [2, 18]: 1.2 µg/mL
MIC [4]: 2.3 µg/mL (≈ 7.29 µM)
MIC [5]: 1.2 µg/mL (≈ 3.8 µM)
MIC [6]: 2.3 µg/mL (≈ 7.29 µM)
MIC ([7]; Table 2, VISA LIM 3, read-out: Minimum Inhibitory Concentration): 1.2 µg/mL
MIC ([8]; Table 2, MRSA USA400, read-out: Minimum Inhibitory Concentration): 1.2 µg/mL
MIC ([9]; Table 2, NRS119, read-out: Minimum Inhibitory Concentration): 2.3 µg/mL
MIC [10, 19]: 2.3 µg/mL
MIC [11, 20]: 2.3 µg/mL
SMILES: CCCc1ccc(-c2nc(C)c(/C(C)=N/NC(=N)N)s2)cc1 [Compound 1c, 2-{1-[4-Methyl-2-(4-propylphenyl)thiazol-5-yl]ethylidene}hydrazinecarboximidamide]
toxicity toward murine macrophage cells [3]: exhibited toxicity; also recorded: toxic

MIC [1, 17]: 1.9 µg/mL
MIC [2, 18]: 1 µg/mL
MIC [12, 21]: 1.9 µg/mL
MIC ([13]; Table 2, VRSA): 1 µg/mL
MIC [4]: 1.9 µg/mL (≈ 5.77 µM)
MIC [5]: 1 µg/mL (≈ 3.04 µM)
MIC [6]: 1 µg/mL (≈ 3.04 µM)
improvement in the MIC value relative to the lead compound [14]: nearly two- to five-fold enhancement
MIC [10, 19]: 1.9 µg/mL
MIC [15, 21]: 1 µg/mL
MIC [11, 20]: 1 µg/mL
SMILES: C/C(=N\NC(=N)N)c1sc(-c2ccc(C(C)(C)C)cc2)nc1C [Compound 1g, 2-{1-[2-(4-(tert-Butyl)phenyl)-4-methylthiazol-5-yl]ethylidene}hydrazinecarboximid-amide]
toxicity toward murine macrophage cells [3]: exhibited toxicity

MIC ([1]; Table 8, NRS19 (VISA), read-out: MIC): 8 µM
MIC ([2]; Table 8, NRS384, read-out: MIC): 16 µM
MIC ([12]; Table 8, read-out: MIC): 16 µM
MIC ([13]; Table 7, VRSA (VRS10)): 4 µM
MIC ([16]; Table 6, MRSA ATCC 43300, 128 μM down to 1.0 μM, 20 hours, read-out: MIC): 8 µM (≈ 3.34 µg/mL)
MIC ([16]; Table 7, MRSA (ATCC 43300), read-out: Minimum Inhibitory Concentration): 8 µM (≈ 3.34 µg/mL)
MIC ([16]; Table 8, ATCC 43300, read-out: MIC): 8 µM (≈ 3.34 µg/mL)
MIC ([7]; Table 8, NRS37 (VISA), read-out: MIC): 8 µM
MIC ([8]; Table 8, NRS123, read-out: MIC): 16 µM
MIC ([9]; NRS 119 / VISA, Table 7, VISA (NRS119), read-out: Minimum Inhibitory Concentration): 16 µM
MIC ([9]; Table 8, NRS119, read-out: MIC): 16 µM
MIC ([10]; Table 7, VISA (NRS1), read-out: Minimum Inhibitory Concentration): 4 µM
MIC ([10]; Table 8, NRS1 (VISA), triplicates, 20 hours, read-out: MIC): 8 µM
MIC ([15]; Table 8, read-out: MIC): 8 µM
MIC ([11]; Table 8, NRS385, read-out: MIC): 8 µM
SMILES: C/C(=N/NC(=N)N)c1sc(-c2ccc(-c3ccc(C(F)(F)F)cc3)cc2)nc1C [Compound M13]
MBC ([1]; Table 8, NRS19 (VISA), read-out: MBC): 8 µM (≈ 3.34 µg/mL)
MBC ([2]; Table 8, NRS384, read-out: MBC): 16 µM (≈ 6.68 µg/mL)
MBC ([12]; Table 8, read-out: MBC): 32 µM (≈ 13.4 µg/mL)
MBC ([13]; Table 7, VRSA (VRS10), read-out: Minimum Bactericidal Concentration): 16 µM (≈ 6.68 µg/mL)
MBC ([16]; Table 6, MRSA ATCC 43300, plating on TSA, 20 hour incubation, read-out: MBC): 16 µM (≈ 6.68 µg/mL)
MBC ([16]; Table 7, MRSA (ATCC 43300), read-out: Minimum Bactericidal Concentration): 16 µM (≈ 6.68 µg/mL)
MBC ([16]; Table 8, ATCC 43300, read-out: MBC): 8 µM (≈ 3.34 µg/mL)
MBC ([7]; Table 8, NRS37 (VISA), read-out: MBC): 8 µM (≈ 3.34 µg/mL)
MBC ([8]; Table 8, NRS123, read-out: MBC): 32 µM (≈ 13.4 µg/mL)
MBC ([9]; NRS 119 / VISA, Table 7, VISA (NRS119), read-out: Minimum Bactericidal Concentration): 32 µM (≈ 13.4 µg/mL)
MBC ([9]; Table 8, NRS119, read-out: MBC): 16 µM (≈ 6.68 µg/mL)
MBC ([10]; Table 7, VISA (NRS1), read-out: Minimum Bactericidal Concentration): 8 µM (≈ 3.34 µg/mL)
MBC ([10]; Table 8, NRS1 (VISA), read-out: MBC): 8 µM (≈ 3.34 µg/mL)
MBC ([15]; Table 8, read-out: MBC): 16 µM (≈ 6.68 µg/mL)
MBC ([11]; Table 8, NRS385, read-out: MBC): 8 µM (≈ 3.34 µg/mL)
